# According to patent US5434295A (priority 1994, dated 1995):
# How the values were obtained:
# cannabimimetic activity = conditions: cited from earlier work
# Balb/C mice = test: Lethality of subcutaneous NMDA in mice; assay type: in vivo; conditions: subcutaneous injection
# Procedure: (§1) Bicyclic compounds of the present invention were tested for their ability to block NMDA toxicity in mice. Balb/C mice received NMDA by subcutaneous injection at a dose of 60 mg/kg which was determined to be the LD20 dose of this substance. Thirty minutes prior to injection of the neurotoxin the animals received either (a) an intravenous injection of the test drug formulated in submicronized emulsion as described in Example 11); (b) an intraperitoneal injection of the test drug dissolved in MCT oil; (c) or the appropriate vehicle alone (control groups). The improvement rate afforded by the test drug was defined as the difference between scores of animals receiving the formulated drug and those receiving the vehicle alone. The doses tested for HU-254, HU-259 and HU-260 ranged from 5 to 30 mg/kg.
# Rat brain NMDA receptors = test: Blockade of NMDA response in Xenopus oocytes injected with rat brain RNA; assay type: biochemical
# Excerpt: Blockade of NMDA-induced voltage changes in Xenopus oocytes: Frog oocytes can be injected with genetic material from various species and organs, resulting in the expression of the various molecules encoded by this material in the oocyte. Injection of rat brain RNA provides active NMDA receptors on the ooctye surface. Application of NMDA results in changes in the electrical activity recorded from the oocytes. Various NMDA antagonists block the NMDA-induced changes in electrical activity and their potency and dose dependence in this system indicate their potency and mode of action as NMDA antagonists.
# The oocyte is the most widely used system for studying the molecular, biophysical and pharmacological properties of expressed voltage- or transmitter-operated ion channels. This giant cell offers several advantages for this type of studies. It can be readily used for two-electrode voltage clamp studies, translates injected mRNA from different sources and functionally expresses the translated proteins, and it is also readily amenable for intracellular micron injections. Importantly, the recordings of neurotransmitter- or voltage-induced currents in a single oocyte are extremely stable and can performed repeatedly for 2-3 hours; this allows the performance of a full dose-response relation in single oocytes.
# Rat brain NMDA receptors were expressed in Xenopus oocytes injected with total rat brain RNA. Dascal and Lotan. The conditions for injection culture and electrical recording from oocytes were as described by Dascal and Lotan (in: Methods in Molecular Biology, Longstaff and Revest, eds. Vol. 13, Chapter 13, Humana Press, N.J., 1992).
# Briefly, female Xenopus were anesthetized by immersion in water containing 0.15% tricaine methanesulfonate and a small incision was made in the lower abdomen. Ovary fragments were removed into ND-96.
# The oocytes were defolliculated by the collagenase treatment in order to remove the follicle cell layer. Defolliculated oocytes were injected with total rat brain RNA and incubated for 2-4 days at 22° C. in sterile NDE-96 solution. ND-96 solution contains (in mM): NaCl - 96, KCl - 2, CaCl2 - 1.8, Hepes - 5 (pH=7.4-7.6). NDE-96 contains in addition, 2.5 mM sodium pyruvate, 100 unit/ml penicillin, 100 μg/ml streptomycin. A single oocyte was placed in a 1 ml bath constantly superfused with ND-96 solution at room temperature. The cell was impaled with two microelectrodes and held at membrane potential of -60 mV using voltage clamp circuit.
# RNA was extracted from the brain of 14-day old rat brain. Each oocyte was injected with 50 nl total RNA (4-8 mg/ml in water, stored at -80° C. in […] aliquots).
# NMDA receptors were activated by application of NMDA with glycine in Mg-free ND-96 solution. It was shown previously and also observed in this study that the entry of calcium ions through the NMDA receptor-channel evokes a Ca-dependent Cl^- current which appeared as an early inward current peak preceding and overlapping the actual NMDA response and hindering a quantitative pharmacological study of NMDA antagonists. Experimental conditions were therefore worked out aimed at eliminating the Cl^- current. The best protocol employed the use of Ca-free, Ba-containing solution, avoiding repetitive application of antagonists, as well as other conditions including optimal perfusion rate and optimal intervals between repetitive NMDA applications.
# Several NMDA receptor blockers were tested. These compounds have […] and have to be dissolved in 100% dimethyl sulfoxide (DMSO) and diluted for use in ND-96 that contained 1% DMSO. Therefore, the effect of 1% DMSO on the response to 10^-4 M NMDA and 5×10^-6 M glycine was examined. DMSO had no effect on NMDA response in three different cells.
# Eight putative NMDA antagonists of the HU group, including 270, 271 and 259 were tested for anti-NMDA activity at a glutamate receptor. […]
# [1] = test system: MK-801 sites located at the NMDA receptor ion channel; test: Inhibition of [3H]MK-801 binding to rat forebrain membranes
# Excerpt: Binding to the NMDA receptor linked channel: Non competitive antagonists of NMDA, the primary example of which is the compound MK-801, bind to a site within the NMDA receptor channel thus preventing the activation of the receptor-channel complex and the consequent neurotoxicity. The ability of various compounds to compete with the binding of tritium labeled MK-801 to brain membranes is considered a measure of their potency as NMDA non-competitive antagonists.
# The association of pinene derivatives with acetylcholine-muscarinic receptor and with MK-801 sites located at the NMDA receptor ion channel.
# Inhibition of ^3 [H]MK-801 binding to rat forebrain membranes by the test HU-211 compounds was carried out as described for HU-211 in Eshhar et al., NeuroReport 5, No. 3, 1993) (Methods section). The test compounds were solubilized in a mixture of ethanol:Emulfor:water (20:3:57).
# [2] = test system: acetylcholine-muscarinic receptor; assay type: binding, rat; conditions: 100 μM analogue
# NMDA toxicity in mice = test: Prevention of NMDA neurotoxicity in mice (neurological scores); assay type: in vivo, mice (Balb/C); conditions: for maximum improvement of neurological scores: NMDA 60 mg/kg s.c., i.p. or i.v. pretreatment; for neurological scores/symptoms after NMDA toxicity: pretreated mice
# Excerpt: Blockade of NMDA toxicity in mice: Subcutaneous injection of NMDA in mice results in a dose-dependent increase in the number, severity and duration of several neurological symptoms, culminating in death at the higher dose range. The symptoms include tail flicks, circling, tremor and convulsions. The ability of various compounds, when administered to mice prior to NMDA, to reduce the number and severity of these symptoms is a considered a measure of their potency in preventing NMDA behavioral toxicity in vivo.
# Test drugs were administered intraperitoneally at the stipulated doses in a solution of MCT oil. Each point represents the mean scores of eight mice treated with the drug compared to the same number of control animals receiving the vehicle alone.
# Test compounds were administered at a standard dose of 10 mg/kg either intraperitoneally (in MCT oil) or intravenously (in a submicronized emulsion).
# as §1
# At least 6-8 mice were included per test group. The materials were tested in a masked study to preclude bias of the observer of clinical symptoms.
# The behavioral scoring method (tabulated above) was used as the basic quantitative procedure for evaluating the level of NMDA or kainic acid neurotoxicity in mice. The neurological clinical status of each animal was calculated by totalling the scores of all signs that were evident throughout the study. Duration of symptoms was also taken into account.
# If duration of a neurological system is up to 30 seconds, the score is s-1. Duration between 0.5-3.0 mins, the score is s. Duration longer than 3 mins, the score is s+1.
# [3] = test system: CA1 hippocampal region in gerbils; conditions: injected after the ischemic insult; Bar-Joseph et al. 1993; cited from earlier work
# cannabinoid receptors = conditions: Devane et al. 1992; cited from earlier work
# [4] = test system: intraocular pressure (IOP); conditions: in vivo; cited from earlier work
# [5] = test system: intraocular pressure (IOP); test: Ocular hypotensive activity (intraocular pressure) in albino rabbits; assay type: in vivo, albino rabbit; conditions: for Max ΔIOP: ** drug vs. vehicle P < 0.01
# Procedure: Bicyclic compounds of the present invention were also tested for IOP lowering effects.
# Sci., 82, 1069-1079 (1993).
# The phospholipids and HU-259 were dissolved in the stabilized oily phase. The other excipients were dissolved in the aqueous phase. Both phases were heated separately to 70° C. and dispersed by a magnetic stirrer. Emulsification was completed using a "high speed mixer" for 5 min at 85° C. The resulting emulsion was cooled rapidly below 20° C. and homogenized using a two-stage homogenizing valve assembly (Gaulin Homogenizer, APV Gaulin, Hilversum, The Netherlands) for 5 min. All the manufacturing procedures were carried out under aseptic conditions and a nitrogen atmosphere. The pH was adjusted to 7.4 using a sodium hydroxide solution (10%). The final fine emulsion was filtered to achieve sterility and stored in ampoules. A typical formulation (%, w/w) consisted of the following: HU-259, 0.2%; oily phase, 20.0%; purified fractionated egg phospholipids, 1.2%; nonionic emulsifier, 2%; glycerin, 2.25%; α-tocopherol, 0.02%; methyl and butyl p-hydroxy- benzoic ester, 0.3 and 0.075%, respectively; and water for injection, to 100.0 g. The control emulsion vehicle was prepared using identical experimental conditions but without drug.
# IOP was measured by using a pneumatonometer (Digilab T30). Pressure readings were calibrated for verification every 6 h. One drop (50 μl) of local anesthetic (Benoxinate HCl, 0.4% Fischer [Isr] diluted 1:3 with sterile saline) was instilled into each eye prior to IOP measurements.
# [6] = test system: closed head injury, a model of head trauma; conditions: Shohami et al. 1993; cited from earlier work
# GABA receptors = test: Effect on GABA responses in oocytes; assay type: biochemical, rat
# [7] = test system: voltage-dependent P-type calcium channels; test: Inhibition of voltage-dependent P-type calcium channels expressed in oocytes; assay type: biochemical, rat
# AMPA/kainate receptors = test: Effect on kainate responses in oocytes; assay type: biochemical, rat
# [8] = test system: rat brain cortical membrane preparations; conditions: cited from earlier work
# [9] = test system: NMDA-induced tremor, seizures and lethality in mice; conditions: Feigenbaum et al. 1989; cited from earlier work
# [10] = test system: NMDA receptor linked ion channel; conditions: Nadler et al. 1993; cited from earlier work
smiles,measurement,setting,value
COc1ccc(C(=O)c2c(C)n(CCN3CCOCC3)c3ccccc23)cc1 [pravadoline],cannabimimetic activity,cannabimimetic activity,found to produce cannabimimetic effects
"CN[C@H](CC(=O)O)C(=O)O [NMDA, N-methyl-D-aspartate]",LD20 dose,Balb/C mice,60 mg/kg
"CCCCCCC(C)(C)c1cc(O)c2c(c1)OC(C)(C)[C@@H]1CC=C(CO)C[C@@H]21 [HU-210, 1,1 dimethylheptyl (DMH) homolog of [3R,4R]-7-hydroxy Δ^6 THC, reference compound]",cannabimimetic activity,cannabimimetic activity,two orders of magnitude higher than the natural Δ^1 THC
same,% inhibition of NMDA,Rat brain NMDA receptors; 10 μM,0%
same,inhibitory effects on NMDA response,Rat brain NMDA receptors; concentrations up to 10 μM,did not have any inhibitory effects
CCCCCCC(C)(C)c1cc(OC(C)=O)c([C@H]2C=C(COC(C)=O)[C@H]3C[C@@H]2C3(C)C)c(OC(C)=O)c1 [HU-254],"% inhibition of tritiated ligand binding to membranes, 3[H]-MK-801",[1]; 100 μM analogue,5.3%
same,"% inhibition of tritiated ligand binding to membranes, 3[H]QNB",[2],96.1%
same,maximum improvement of neurological scores,NMDA toxicity in mice,30-40%
same,maximum improvement rate on the neurological scores,NMDA toxicity in mice; i.p. dose of 20 mg/kg,25%
same,effect of route of administration on performance,NMDA toxicity in mice; i.v. vs i.p.,significantly enhanced by i.v. administration
same,neurological scores/symptoms after NMDA toxicity,NMDA toxicity in mice,improvement in neurological scores
CCCCCCC(C)(C)c1ccc([C@@H]2C[C@H](O)CC[C@H]2CCCO)c(O)c1 [CP-55940],cannabimimetic activity,cannabimimetic activity,found to produce cannabimimetic effects
CCCCCCC(C)(C)c1cc(OC(C)=O)c([C@H]2C=C(CO)[C@H]3C[C@@H]2C3(C)C)c(OC(C)=O)c1 [HU-260],maximum improvement of neurological scores,NMDA toxicity in mice,30-40%
same,neurological scores/symptoms after NMDA toxicity,NMDA toxicity in mice,improvement in neurological scores
"CCCCCCC(C)(C)c1cc(O)c2c(c1)OC(C)(C)[C@H]1CC=C(CO)C[C@H]21 [HU-211, 7-hydroxy-Δ^6-tetrahydrocannabinol 1,1-dimethylheptyl, reference compound]",neuronal cell damage in CA1 hippocampal region,[3],prevent neuronal cell damage
same,affinity to the cannabinoid receptors,cannabinoid receptors,very low affinity
same,lowering of intraocular pressure,[4],lowering of intraocular pressure (IOP)
same,Ki,"[1]; [3H]MK801 binding, rat forebrain membranes, representative experiment in triplicate (HU259), read-out: inhibition constant (K1)",11.3 µM
same,AUC (from instillation of treatment until return to baseline IOP),[5]; contralateral eye,-4.9 ± 7.0 mmHg × hrs
same,Max ΔIOP,[5]; contralateral eye,-2.0 ± 1.1 mmHg
same,AUC (from instillation of treatment until return to baseline IOP),[5]; treated eye,-9.5 ± 6.0 mmHg × hrs
same,Max ΔIOP,"[5]; treated eye, single dose 0.2% emulsion",-2.9 ± 0.7 mmHg
same,extent of edema formation and overall neurological damage,[6],significantly reduced
same,effect on GABA responses,GABA receptors,no effect
same,inhibition of activity of voltage-dependent P-type calcium channels,[7],did not inhibit
same,effect on kainate responses,AMPA/kainate receptors,no effect
same,"increase in binding of [3H]TCP induced by polyamines, glutamate or glycine",[8],blocked the increase in binding
same,cannabimimetic activity,cannabimimetic activity,inactive as a cannabimimetic
same,"block of NMDA-induced tremor, seizures and lethality",[9],"block NMDA-induced tremor, seizures and lethality in mice"
same,NMDA induced uptake of 45Ca++ ions,[10],block the NMDA induced uptake
same,% inhibition of NMDA,Rat brain NMDA receptors; 1 μM,32%
same,% inhibition of NMDA,Rat brain NMDA receptors; 10 μM,47%
same,mode of NMDA antagonism,Rat brain NMDA receptors; Lineweaver-Burke analysis,non-competitive NMDA antagonists
same,concentration at which inhibitory activity was first apparent,Rat brain NMDA receptors; NMDA response,10 nM
